According to PubChem BioAssay (NCI):
Several values for one entry are separate records, joined by “and”; a condition that tells them apart may be missing. Identical values can stand only once.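 Dose response: 5 concentrations. Exposure: 48 h. Format: 96-well plates. Endpoint: linear interpolation; highest concentration if not reached. Abbreviation: GI50, concentration required for 50% inhibition of growth. TGI: concentration producing complete growth inhibition.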

How the values were obtained:
Assay in all cases: growth of human tumour cells (NCI), 48 h
[1] = system: SN12C renal
[2] = system: 786-0 renal
[3] = system: HOP-62 NSCLC
[4] = system: CAKI-1 renal
[5] = system: CCRF-CEM leukemia
[6] = system: ACHN renal
[7] = system: IGROV1 ovarian
[8] = system: SK-MEL-2 melanoma
[9] = system: DU-145 prostate
[10] = system: MDA-MB-231 breast

Row | SMILES | TGI [1] [µM] | TGI [2] [µM] | TGI [3] [µM] | TGI [4] [µM] | TGI [5] | TGI [6] [µM] | TGI [7] [µM] | TGI [8] [µM] | GI50 [9] [µM] | TGI [9] [µM] | GI50 [8] [µM] | GI50 [1] [µM] | GI50 [2] [µM] | GI50 [4] | GI50 [10] [µM] | TGI [10] [µM] | GI50 [6] [µM] | GI50 [7] [µM] | GI50 [3] [µM] | GI50 [5] [µM]
1 | COc1cc(CCc2ccc(OCCN(C)C)cc2)cc(OC)c1OC | > 100 | > 100 | > 100 | > 100 | > 100 µM | > 100 | > 100 |  |  |  |  |  |  |  |  |  |  |  |  | 
2 | CCc1cccc(C(C)C)c1NC(=O)C(=O)C(Cc1nc2ccccc2[nH]c1=O)C(=O)OC (stereo not given) | > 100 | > 100 | > 100 | > 100 | > 100 µM | > 100 | > 100 | > 100 |  |  |  |  |  |  |  |  |  |  |  | 
3 | Cc1c2c(nn1-c1ccc(S(=O)(=O)NC(=S)Nc3ccccc3)cc1)-c1ccccc1CC2 | > 50 | > 50 |  | 36.2 |  | > 50 | > 50 | > 50 | > 50 | > 50 | > 50 | > 50 | 26.4 | 1.85 µM | > 50 | > 50 | > 50 | 20.6 |  | 
4 | COC(=O)C1CC2(CC3=C1CCCC3)OCCO2 (stereo not given) | > 100 | > 100 | > 100 | > 100 | > 100 µM |  | > 100 | > 100 |  |  |  |  |  |  |  |  |  |  |  | 
5 | COc1cc(C2C=C(c3cccc(NC(C)=O)c3)Nc3ncnn32)cc(OC)c1OC (stereo not given) | > 100 | > 100 | > 100 | > 100 | 4.16 µM | > 100 | > 26.5 |  | 0.44 | 7.34 |  | 0.489 | 0.615 | 0.573 µM | 2.11 | > 55.9 | 3.47 | 0.65 | 0.554 | 0.72
6 | Cc1ccc(-[n+]2c3cc(N)c(C)cc3nc3cc(C)c(Nc4ccccc4)cc32)cc1 |  | 0.644 | 0.397 | 0.461 | > 100 µM | 1.17 | 1.54 | 0.538 | 0.0534 | 1.08 | 0.235 |  | 0.2 | 0.173 µM |  |  | 0.107 | 0.166 | 0.0472 | 0.223
7 | Cc1cc2c(c(C#N)c1C)NC(=O)CCC2=O | > 100 | > 100 | > 100 | > 100 | > 100 µM | > 100 | > 100 | > 100 |  |  |  |  |  |  |  |  |  |  |  | 
8 | CCOc1ccccc1NC(=O)C(=O)CC(=O)c1c(C)n([O-])c2ccccc2[n+]1=O | > 100 | > 100 | > 100 | > 100 | > 100 µM | > 100 | > 100 | > 100 |  |  |  |  |  |  |  |  |  |  |  | 
9 | CC1=C(C(=O)Nc2c(C)cccc2C)C(c2ccc3c(c2)OCO3)C(C(=O)Nc2c(C)cccc2C)=C(C)N1 | 32.7 | 28.2 | 44 | 59 | 41.9 µM | 35.2 | 28.5 |  |  |  |  |  |  |  |  |  |  |  |  | 
10 | O=c1c2ccccc2[nH]c(=S)n1-c1ccc(Br)cc1 | > 100 | > 100 | > 100 |  |  | > 100 | > 100 | > 100 |  |  |  |  |  |  |  |  |  |  |  | 
11 | CC1OC(OCC2OC(Oc3c(-c4ccc(O)cc4)oc4cc(O)cc(O)c4c3=O)C(OC3OCC(O)(CO)C3O)C(O)C2O)C(O)C(O)C1O (stereo not given) | > 100 | > 100 | > 100 | > 100 | > 100 µM | > 100 | > 100 | > 100 |  |  |  |  |  |  |  |  |  |  |  | 
12 | Cc1cnc2c(C)ccc([N+](=O)[O-])c2c1NCCCN(C)C | > 100 | > 100 | > 100 | > 100 | > 100 µM | > 100 | > 100 | > 100 |  |  |  |  |  |  |  |  |  |  |  | 
13 | Cn1c(=O)nc2n(-c3ccc(Cl)cc3)c3ccc(Cl)cc3nc-2c1=O | 27.6 | 54.7 | 49.5 | 25.9 | 85.6 µM |  | 51.1 | 16.9 |  |  |  |  |  |  |  |  |  |  |  | 
14 | Nc1ccn(CCOC(=O)c2ccccc2)c(=O)n1 | > 100 | > 100 | > 100 | > 100 | > 100 µM | > 100 | > 100 | > 100 |  |  |  |  |  |  |  |  |  |  |  | 
15 | N#Cc1cn(C2OC(CO)C(O)C2O)c2ncnc(N)c12 (stereo not given) |  | > 100 |  |  | 0.216 µM and 0.84 µM and 0.0961 µM | 0.02 |  |  |  |  |  | < 0.0119 |  | 0.0705 µM and 0.045 µM and < 0.01 µM |  | > 100 | < 0.01 | 0.0266 | 0.0533 | 0.045
16 | O=C(Oc1ccc(Cl)cc1Cl)c1ccccc1Nc1ccnc(C(F)(F)F)c1 | 7.63 | 5.87 |  | 4.14 | > 100 µM | 27 | > 100 | > 100 | 15.7 | 30.6 | 20.5 | 3.01 | 1.93 | 2.1 µM | 2.24 | 7.92 | 13.2 | 17.8 |  | 3.54
17 | N#Cc1c(Sc2ccccc2N)cccc1Sc1ccccc1N |  |  |  |  |  |  |  |  |  |  |  | 42.1 | 37.8 | 60.8 µM | 49.8 |  | 35.2 | 50.9 |  | 20.9
18 | CC[C@H](C)N(CCN)C(=O)c1cc2ccccc2c(-c2ccccc2Cl)n1 | 32.8 | > 100 | 33.3 |  | 15.7 µM | 28.1 | 26.2 | 33.5 |  |  |  |  |  |  |  |  |  |  |  | 
19 | CC1=C(C(=O)Nc2ccccc2C)C(c2ccccc2)C(C(=O)Nc2ccccc2C)=C(C)N1 | > 100 | > 100 | > 100 | > 100 | 73.9 µM | > 100 | > 100 | 93 |  |  |  |  |  |  |  |  |  |  |  | 
20 | O=C(CNc1nncs1)NO | > 100 | > 100 | > 100 |  |  | > 100 | > 100 | > 100 |  |  |  |  |  |  |  |  |  |  |  | 
21 | COc1cccc2cc(C)c(C(=O)c3ccccc3)nc12 | > 100 | > 100 | > 100 | > 100 | > 100 µM | > 100 | > 100 | > 100 |  |  |  |  |  |  |  |  |  |  |  | 
22 | CC(=O)n1c(COS(C)(=O)=O)nc2ccccc21 | > 100 | > 100 | > 100 | > 100 |  | > 100 | > 100 | > 100 |  | > 100 |  |  |  |  |  | > 100 |  |  |  | 
